Test results taken from patent publication US9771381B2, “Derivatives of 1-amino-2-cyclobutylethylboronic acid” (Millennium Pharmaceuticals, Inc., priority 2008, dated 2017).

These compounds were tested against T1, human 20S proteasome (Homo sapiens, UniProt P28074) (assay: 20S Proteasome Assay). Details: Ac-WLA-AMC substrate 15 μM, human PA28 activator 12 nM, human 20S proteasome 0.25 nM, 37° C., pH7.4.
T1 construct: purchased Boston Biochem
Type: biochemical

SMILES	IC50 [nM]
O=C(N[C@@H](Cc1ccccc1)C(=O)N[C@@H](CC1CCC1)B(O)O)c1ccc(O)c(CN2CCOCC2)c1 [Compound 3, {(1R)-2-cyclobutyl-1-[((2S)-2-{[4-hydroxy-3-(morpholin-4-ylmethyl)benzoyl]amino}-3-phenylpropanoyl)amino]ethyl}boronic acid]	< 50
O=C(N[C@@H](CC1CCC1)B(O)O)[C@H](Cc1ccccc1)NC(=O)[C@H](CCc1ccccc1)NS(=O)(=O)Cc1ccccc1 [Compound 4, [(1R,4S,7S)-4-benzyl-1-(cyclobutylmethyl)-9,9-dioxido-3,6-dioxo-10-phenyl-7-(2-phenylethyl)-9-thia-2,5,8-triazadec-1-yl]boronic acid]	< 50
CC1(C)[C@@H]2C[C@H]3OB([C@H](CC4CCC4)NC(=O)[C@H](Cc4ccccc4)NC(=O)c4cc(Cl)ccc4Cl)O[C@@]3(C)[C@H]1C2 [Compound 5, N-[(1S)-1-benzyl-2-({(1R)-2-cyclobutyl-1-[(3aS,4S,6S,7aR)-3a,5,5-trimethylhexahydro-4,6-methano-1,3,2-benzodioxaborol-2-yl]ethyl}amino)-2-oxoethyl]-2,5-dichlorobenzamide]	< 50
O=C(N[C@@H](Cc1ccccc1)C(=O)N[C@@H](CC1CCC1)B(O)O)c1cccc(Oc2ccccc2)c1 [Compound 7, [(1R)-2-cyclobutyl-1-({(2S)-2-[(3-phenoxybenzoyl)amino]-3-phenylpropanoyl}amino)ethyl]boronic acid]	< 50
CN1CCOc2cc(S(=O)(=O)N[C@@H](Cc3ccccc3)C(=O)N[C@@H](CC3CCC3)B3O[C@@H]4C[C@@H]5C[C@@H](C5(C)C)[C@]4(C)O3)ccc21 [Compound 8, (2S)-N-{(1R)-2-cyclobutyl-1-[(3aS,4S,6S,7aR)-3a,5,5-trimethylhexahydro-4,6-methano-1,3,2-benzodioxaborol-2-yl]ethyl}-2-{[(4-methyl-3,4-dihydro-2H-1,4-benzoxazin-7-yl)sulfonyl]amino}-3-phenylpropanamide]	< 50
CC1(C)[C@@H]2C[C@H]3OB([C@H](CC4CCC4)NC(=O)[C@H](Cc4ccccc4)NC(=O)c4cccnc4Oc4ccccc4)O[C@@]3(C)[C@H]1C2 [Compound 9, N-[(1S)-1-benzyl-2-({(1R)-2-cyclobutyl-1-[(3aS,4S,6S,7aR)-3a,5,5-trimethylhexahydro-4,6-methano-1,3,2-benzodioxaborol-2-yl]ethyl}amino)-2-oxoethyl]-2-phenoxynicotinamide]	< 50
CC1(C)[C@@H]2C[C@H]3OB([C@H](CC4CCC4)NC(=O)[C@H](Cc4ccccc4)NC(=O)c4ccc(O)c(CN5CCOCC5)c4)O[C@@]3(C)[C@H]1C2 [Compound 10, N-[(1S)-1-benzyl-2-({(1R)-2-cyclobutyl-1-[(3aS,4S,6S,7aR)-3a,5,5-trimethylhexahydro-4,6-methano-1,3,2-benzodioxaborol-2-yl]ethyl}amino)-2-oxoethyl]-4-hydroxy-3-(morpholin-4-ylmethyl)benzamide]	50 to 150
O=C(N[C@@H](CC1CCC1)B(O)O)[C@H](Cc1ccccc1)NS(=O)(=O)c1ccc(Oc2ccccc2)nc1 [Compound 11, {(1R)-2-cyclobutyl-1-[((2S)-2-{[(6-phenoxypyridin-3-yl)sulfonyl]amino}-3-phenylpropanoyl)amino]ethyl}boronic acid]	< 50
CC1(C)[C@@H]2C[C@H]3OB([C@H](CC4CCC4)NC(=O)[C@H](Cc4ccccc4)NS(=O)(=O)c4ccc5ccccc5c4)O[C@@]3(C)[C@H]1C2 [Compound 12, (2S)-N-{(1R)-2-cyclobutyl-1-[(3aS,4S,6S,7aR)-3a,5,5-trimethylhexahydro-4,6-methano-1,3,2-benzodioxaborol-2-yl]ethyl}-2-[(2-naphthylsulfonyl)amino]-3-phenylpropanamide]	< 50
CC1(C)[C@@H]2C[C@H]3OB([C@H](CC4CCC4)NC(=O)[C@H](Cc4ccccc4)NC(=O)c4cccc(Oc5ccccc5)c4)O[C@@]3(C)[C@H]1C2 [Compound 13]	< 50
CC1(C)[C@@H]2C[C@H]3OB([C@H](CC4CCC4)NC(=O)[C@H](Cc4ccccc4)NC(=O)c4ccc5[nH]c(-c6ccccc6)nc5c4)O[C@@]3(C)[C@H]1C2 [Compound 14]	< 50
CC1(C)[C@@H]2C[C@H]3OB([C@H](CC4CCC4)NC(=O)[C@H](Cc4ccccc4)NS(=O)(=O)c4cccnc4)O[C@@]3(C)[C@H]1C2 [Compound 15, (2S)-N-{(1R)-2-cyclobutyl-1-[(3aS,4S,6S,7aR)-3a,5,5-trimethylhexahydro-4,6-methano-1,3,2-benzodioxaborol-2-yl]ethyl}-3-phenyl-2-[(pyridin-3-ylsulfonyl)amino]propanamide]	50 to 150
CC(=O)N[C@@H](CCc1ccccc1)C(=O)N[C@@H](Cc1ccccc1)C(=O)N[C@@H](CC1CCC1)B1O[C@@H]2C[C@@H]3C[C@@H](C3(C)C)[C@]2(C)O1 [Compound 16, (2S)-2-(acetylamino)-N-[(1S)-1-benzyl-2-({(1R)-2-cyclobutyl-1-[(3aS,4S,6S,7aR)-3a,5,5-trimethylhexahydro-4,6-methano-1,3,2-benzodioxaborol-2-yl]ethyl}amino)-2-oxoethyl]-4-phenylbutanamide]	< 50
O=C(N[C@@H](Cc1ccccc1)C(=O)N[C@@H](CC1CCC1)B(O)O)c1ccc2nc(-c3ccccc3)[nH]c2c1 [Compound 18, {(1R)-2-cyclobutyl-1-[((2S)-3-phenyl-2-{[(2-phenyl-1H-benzimidazol-6-yl)carbonyl]amino}propanoyl)amino]ethyl}boronic acid]	< 50
CC1(C)[C@@H]2C[C@H]3OB([C@H](CC4CCC4)NC(=O)[C@H](Cc4ccccc4)NC(=O)c4cccnc4Nc4cccc(C(F)(F)F)c4)O[C@@]3(C)[C@H]1C2 [Compound 19, N-[(1S)-1-benzyl-2-({(1R)-2-cyclobutyl-1-[(3aS,4S,6S,7aR)-3a,5,5-trimethylhexahydro-4,6-methano-1,3,2-benzodioxaborol-2-yl]ethyl}amino)-2-oxoethyl]-2-{[3-(trifluoromethyl)phenyl]amino}nicotinamide]	< 50

Results, then the compound that gave them:

IC50 [nM]	SMILES
< 50	CC1(C)[C@@H]2C[C@H]3OB([C@H](CC4CCC4)NC(=O)[C@H](Cc4ccccc4)NC(=O)[C@H](CCc4ccccc4)NS(=O)(=O)Cc4ccccc4)O[C@@]3(C)[C@H]1C2 [Compound 21, (2S)-N-[(1S)-1-benzyl-2-({(1R)-2-cyclobutyl-1-[(3aS,4S,6S,7aR)-3a,5,5-trimethylhexahydro-4,6-methano-1,3,2-benzodioxaborol-2-yl]ethyl}amino)-2-oxoethyl]-2-[(benzylsulfonyl)amino]-4-phenylbutanamide]
< 50	CC(=O)N[C@@H](CCc1ccccc1)C(=O)N[C@@H](Cc1ccccc1)C(=O)N[C@@H](CC1CCC1)B(O)O [Compound 22, {(1R)-1-[((2S)-2-{[(2S)-2-(acetylamino)-4-phenylbutanoyl]amino}-3-phenylpropanoyl)amino]-2-cyclobutylethyl}boronic acid]
< 50	O=C(N[C@@H](Cc1ccccc1)C(=O)N[C@@H](CC1CCC1)B(O)O)c1cccnc1Nc1cccc(C(F)(F)F)c1 [Compound 23, {(1R)-2-cyclobutyl-1-[((2S)-3-phenyl-2-{[(2-{[3-(trifluoromethyl)phenyl]amino}pyridin-3-yl)carbonyl]amino}propanoyl)amino]ethyl}boronic acid]
< 50	CC1(C)[C@@H]2C[C@H]3OB([C@H](CC4CCC4)NC(=O)[C@H](Cc4ccccc4)NS(=O)(=O)c4ccc(Oc5ccccc5)nc4)O[C@@]3(C)[C@H]1C2 [Compound 24, (2S)-N-{(1R)-2-cyclobutyl-1-[(3aS,4S,6S,7aR)-3a,5,5-trimethylhexahydro-4,6-methano-1,3,2-benzodioxaborol-2-yl]ethyl}-2-{[(6-phenoxypyridin-3-yl)sulfonyl]amino}-3-phenylpropanamide]
< 50	O=C(c1cccc(S(=O)(=O)N[C@@H](Cc2ccccc2)C(=O)N[C@@H](CC2CCC2)B(O)O)c1)c1ccccn1 [Compound 29, ((1R)-2-cyclobutyl-1-{[(2S)-3-phenyl-2-({[3-(pyridin-2-ylcarbonyl)phenyl]sulfonyl}amino)propanoyl]amino}eth-yl)boronic acid]
< 50	Cn1ccc2c(S(=O)(=O)N[C@@H](Cc3ccccc3)C(=O)N[C@@H](CC3CCC3)B(O)O)cccc21 [Compound 30, {(1R)-2-cyclobutyl-1-[((2S)-2-{[(1-methyl-1H-indol-4-yl)sulfonyl]amino}-3-phenylpropanoyl)amino]ethyl}boronic acid]
< 50	O=C(N[C@@H](CC1CCC1)B(O)O)[C@H](Cc1ccccc1)NS(=O)(=O)c1ccc(N2CCOCC2)nc1 [Compound 31, {(1R)-2-cyclobutyl-1-[((2S)-2-{[(6-morpholin-4-ylpyridin-3-yl)sulfonyl]amino}-3-phenylpropanoyl)amino]ethyl}boronic acid]
< 50	O=C1COc2cc(S(=O)(=O)N[C@@H](Cc3ccccc3)C(=O)N[C@@H](CC3CCC3)B(O)O)c(Cl)cc2N1 [Compound 32, {(1R)-1-[((2S)-2-{[(6-chloro-3-oxo-3,4-dihydro-2H-1,4-benzoxazin-7-yl)sulfonyl]amino}-3-phenylpropanoyl)amino]-2-cyclobutylethyl}boronic acid]
< 50	O=C(N[C@@H](CC1CCC1)B(O)O)[C@H](Cc1ccccc1)NS(=O)(=O)c1cccc(Oc2ccc(C(F)(F)F)cn2)c1 [Compound 34, {(1R)-2-cyclobutyl-1-[((2S)-3-phenyl-2-{[(3-{[5-(trifluoromethyl)pyridin-2-yl]oxy}phenyl)sulfonyl]amino}pro-panoyl)amino]ethyl}boronic acid]
< 50	CN1CCOc2ccc(C(=O)N[C@@H](Cc3ccccc3)C(=O)N[C@@H](CC3CCC3)B(O)O)cc21 [Compound 37, {(1R)-2-cyclobutyl-1-[((2S)-2-{[(4-methyl-3,4-dihydro-2H-1,4-benzoxazin-6-yl)carbonyl]amino}-3-phenylpropanoyl)amino]ethyl}boronic acid]
< 50	O=C(N[C@@H](CC1CCC1)B(O)O)[C@H](Cc1ccccc1)NS(=O)(=O)c1cc(F)ccc1F [Compound 38, {(1R)-2-cyclobutyl-1-[((2S)-2-{[(2,5-difluorophenyl)sulfonyl]amino}-3-phenylpropanoyl)amino]ethyl}boronic acid]
